According to US8916599B2, “1H-benz imidazole-5-carboxamides as anti-inflammatory agents” (Orexo AB, priority 2008, dated 2014):

target: T1, recombinant human mPGES-1 (Homo sapiens, UniProt O14684); assay: mPGES-1 inhibition test (microsomes, PGH2 substrate, HTRF detection of PGE2); format: biochemical; conditions: inhibition of mPGES-1 at 1 μM (marked in cell)
T1 construct: made in house; host or cells: Rosetta E. coli (microsomal/membrane fraction)
T1 sequence (O14684 1-152): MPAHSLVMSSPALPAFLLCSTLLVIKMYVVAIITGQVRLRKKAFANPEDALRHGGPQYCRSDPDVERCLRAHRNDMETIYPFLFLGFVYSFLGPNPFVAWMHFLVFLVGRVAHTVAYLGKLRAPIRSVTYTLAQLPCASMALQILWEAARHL
In short: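 Microsomes from E. coli Rosetta expressing the enzyme, in 0.1 M KPi pH 7.4 with 2.5 mM GSH, were preincubated 25 min at room temperature with inhibitor in DMSO. PGH2 was added, the reaction stopped after one minute with acidified FeCl2, and PGE2 quantified by HTRF after 750-fold dilution.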

Point of comparison: `COc1cc2c(cc1C(=O)Nc1ccc(Br)cc1)nc(Nc1cccc(Cl)c1C(F)(F)F)n2C` [Example 654], inhibition at 1 µM 99%. Against it:
- CC(C)Oc1cc2c(cc1C(=O)NC1CCC3(CC1)CC3)nc(Nc1c(Cl)ccc(Cl)c1F)n2C [Example 648, 2-(3,6-Dichloro-2-fluoro-phenylamino)-6-isopropoxy-N-(spiro[2.5]oct-6-yl)-1-methyl-1H-benzimidazole-5-carboxamide] — higher, 100%

same assay, conditions: inhibition of mPGES-1 at 10 μM

Point of comparison: `Cn1c(Nc2c(Cl)cccc2Cl)nc2cc(C(=O)NC34CC5CC(CC(C5)C3)C4)c(F)cc21` [Example 165, 2-(2,6-Dichloro-phenylamino)-6-fluoro-1-methyl-1H-benzimidazole-5-carboxylic acid adamantan-1-ylamide], inhibition at 10 µM 98%. Against it:
- Cn1c(Nc2c(Cl)cccc2Cl)nc2cc(C(=O)NCCC3CCC3)c(F)cc21 [Example 397, N-(2-Cyclobutylethyl)-2-(2,6-dichlorophenylamino)-6-fluoro-1-methyl-1H-benzimidazole-5-carboxamide] — higher, 99%
- CCCCCCCCNC(=O)c1cc2nc(Nc3c(Cl)cccc3Cl)n(C)c2cc1F [Example 166, 2-(2,6-Dichloro-phenylamino)-6-fluoro-1-methyl-1H-benzimidazole-5-carboxylic acid octylamide] — higher, 100%
- Cn1c(Nc2ccc(C(F)(F)F)cc2Cl)nc2cc(C(=O)Nc3ccc(Br)cc3)ccc21 [Example 556, N-(4-Bromophenyl)-2-(2-chloro-4-trifluoromethyl-phenylamino)-1-methyl-1H-benzimidazole-5-carboxamide] — lower, 74%
- Cn1c(Nc2c(Cl)cc(F)cc2Cl)nc2cc(C(=O)NCc3ncccc3C(F)(F)F)ccc21 [Example 542, 2-(2,6-Dichloro-4-fluorophenylamino)-1-methyl-N-((3-trifluoromethyl-pyridin-2-yl)methyl)-1H-benzimidazole-5-carboxamide] — lower, 97%
- COc1cc2[nH]c(Nc3c(Cl)ccc(Cl)c3F)nc2cc1C(=O)NC1CCC(C)(C)CC1 [Example 616, 2-(3,6-Dichloro-2-fluoro-phenylamino)-N-(4,4-dimethyl-cyclohex-1-yl)-6-methoxy-1H-benzimidazole-5-carboxamide] — higher, 100%
- O=C(Nc1cc(Cl)ccn1)c1ccc2[nH]c(Nc3c(Cl)cccc3Cl)nc2c1 [Example 75, 2-(2,6-Dichloro-phenylamino)-1H-benzimidazole-5-carboxylic acid (4-chloro-pyridin-2-yl)-amide] — lower, 95%
- CCCCOc1cccc(NC(=O)c2ccc3[nH]c(Nc4c(Cl)cccc4Cl)nc3c2)n1 [Example 426, N-(6-Butoxypyridin-2-yl)-2-(2,6-dichlorophenylamino)-1H-benzimidazole-5-carboxamide] — the same, 98%
- O=C(Nc1ccc(Br)c(F)c1)c1cc2nc(Nc3c(Cl)cccc3Cl)[nH]c2cc1Cl [Example 54, 2-(2,6-Dichloro-phenylamino)-6-chloro-1H-benzimidazol-5-carboxylic acid (4-bromo-3-fluoro-phenyl)-amide] — lower, 96%
- Cn1c(Nc2cc(S(C)(=O)=O)ccc2Cl)nc2cc(C(=O)Nc3ccc(Br)cc3)ccc21 [Example 526, N-(4-Bromophenyl)-2-(2-chloro-5-(methylsulfonyl)phenylamino)-1-methyl-1H-benzimidazole-5-carboxamide] — lower, 93%
- CO[C@H]1CC[C@H](NC(=O)c2ccc3c(c2)nc(Nc2c(Cl)cccc2Cl)n3C)CC1 [Example 240, 2-(2,6-Dichloro-phenylamino)-1-methyl-1H-benzimidazole-5-carboxylic acid (trans-4-methoxy-cyclohexyl)-amide] — lower, 80%
- Cn1c(Nc2c(Cl)cccc2Cl)nc2cc(C(=O)NC3CCCCC3C(F)(F)F)ccc21 (stereo not shown) [Example 254, 2-(2,6-Dichloro-phenylamino)-1-methyl-1H-benzimidazole-5-carboxylic acid (2-trifluoromethyl-cyclohexyl)-amide] — higher, 100%
- O=C(N[C@H]1CC[C@H](C(F)F)CC1)c1cc2nc(Nc3c(Cl)cccc3Cl)[nH]c2cc1F [Example 496, 2-(2,6-Dichlorophenylamino)-N-((1r,4r)-4-(difluoromethyl)cyclohexyl)-6-fluoro-1H-benzimidazole-5-carboxamide] — higher, 100%
- Cc1cc(Br)cnc1NC(=O)c1ccc2[nH]c(Nc3c(Cl)cccc3Cl)nc2c1 [Example 183, 2-(2,6-Dichloro-phenylamino)-1H-benzimidazole-5-carboxylic acid (5-bromo-3-methyl-pyridin-2-yl)-amide] — higher, 100%
- CCOc1cc2[nH]c(Nc3c(Cl)ccc(Cl)c3F)nc2cc1C(=O)NC1CCC(C)(C)CC1 [Example 600, 2-(3,6-Dichloro-2-fluoro-phenylamino)-N-(4,4-dimethyl-cyclohexyl)-6-ethoxy-1H-benzimidazole-5-carboxamide] — lower, 94%
- Cc1cc(NC(=O)c2ccc3nc(Nc4c(Cl)cccc4Cl)[nH]c3c2)cc(Cl)n1 [Example 198, 2-(2,6-Dichloro-phenylamino)-3H-benzimidazole-5-carboxylic acid (2-chloro-6-methyl-pyridin-4-yl)-amide] — higher, 100%
- Cn1c(Nc2c(Cl)cccc2Cl)nc2cc(C(=O)NC3CCC(F)(F)CC3)ccc21 [Example 249, 2-(2,6-Dichloro-phenylamino)-1-methyl-1H-benzimidazole-5-carboxylic acid (4,4-difluoro-cyclohexyl)-amide] — lower, 96%
- Cn1c(Nc2c(Cl)cccc2Cl)nc2cc(C(=O)NC3(C)CCCCC3)ccc21 [Example 253, 2-(2,6-Dichloro-phenylamino)-1-methyl-1H-benzimidazole-5-carboxylic acid (1-methyl-cyclohexyl)-amide] — higher, 100%
- CCOc1cc2[nH]c(Nc3c(Cl)ccc(Cl)c3F)nc2cc1C(=O)N[C@H]1CC[C@H](C(F)(F)F)CC1 [Example 599, 2-(3,6-Dichloro-2-fluoro-phenylamino)-6-ethoxy-N-(trans-4-trifluoromethyl-cyclohex-1-yl)-1H-benzimidazole-5-carboxamide] — lower, 92%
- Cn1c(Nc2c(Cl)cccc2Cl)nc2cc(C(=O)NCc3ncccc3Cl)c(F)cc21 [Example 452, N-((3-Chloropyridin-2-yl)methyl)-2-(2,6-dichlorophenylamino)-6-fluoro-1-methyl-1H-benzimidazole-5-carboxamide] — lower, 93%
- Cc1cc(Cl)cc(Cl)c1Nc1nc2cc(C(=O)Nc3ccc(Br)cc3)ccc2n1C [Example 402, N-(4-Bromophenyl)-2-(2,4-dichloro-6-methylphenylamino)-1-methyl-1H-benzimidazole-5-carboxamide] — higher, 100%
- Cn1c(Nc2c(Cl)cccc2Cl)nc2cc(C(=O)NC3CC(C)(C)C3)c(F)cc21 [Example 447, 2-(2,6-Dichlorophenylamino)-N-(3,3-dimethylcyclobutyl)-6-fluoro-1-methyl-1H-benzimidazole-5-carboxamide] — higher, 99%
- N#Cc1ccc(NC(=O)c2ccc3[nH]c(Nc4c(Cl)cccc4Cl)nc3c2)nc1 [Example 329, 2-(2,6-Dichloro-phenylamino)-1H-benzimidazole-5-carboxylic acid (5-cyano-pyridin-2-yl)-amide] — lower, 89%
- O=C(N[C@H]1CC[C@H](C(F)(F)F)CC1)c1cc2nc(Nc3c(Cl)cc(F)cc3Cl)[nH]c2cc1OCCF [Example 584, 2-(2,6-Dichloro-4-fluoro-phenylamino)-N-(trans-4-trifluoro-cyclohex-1-yl)-6-(2-fluoroethoxy)-1H-benzimidazole-5-carboxamide] — lower, 96%
- O=C(Nc1ccc(Br)cc1)c1ccc2[nH]c(Nc3c(Cl)cccc3OC(F)(F)F)nc2c1 [Example 557, N-(4-Bromophenyl)-2-(2-chloro-6-(trifluoromethoxy)phenylamino)-1H-benzimidazole-5-carboxamide] — lower, 69%
- Cn1c(Nc2c(Cl)cccc2Cl)nc2cc(C(=O)NCCc3ccccn3)ccc21 [Example 258, 2-(2,6-Dichloro-phenylamino)-1-methyl-1H-benzimidazole-5-carboxylic acid (2-pyridin-2-yl-ethyl)-amide] — lower, 83%
- Cn1c(Nc2c(F)cccc2F)nc2cc(C(=O)NC3CCC(C)(C)CC3)ccc21 [Example 172, 2-(2,6-Difluoro-phenylamino)-1-methyl-1H-benzimidazole-5-carboxylic acid (4,4-dimethyl-cyclohexyl)-amide] — lower, 97%
- COc1cc2[nH]c(Nc3c(Cl)ccc(Cl)c3F)nc2cc1C(=O)Nc1ccc(Br)cc1 [Example 602, 2-(3,6-Dichloro-2-fluoro-phenylamino)-6-methoxy-N-(4-bromophenyl)-1H-benzimidazole-5-carboxamide] — higher, 100%
- O=C(Nc1cc(Cl)c(Cl)c(Cl)c1)c1ccc2[nH]c(Nc3c(Cl)cccc3Cl)nc2c1 [Example 287, 2-(2,6-Dichloro-phenylamino)-1H-benzimidazole-5-carboxylic acid (3,4,5-trichloro-phenyl)-amide] — lower, 92%
- O=C(NCc1cc(C(F)(F)F)ccn1)c1ccc2[nH]c(Nc3c(Cl)cccc3Cl)nc2c1 [Example 221, 2-(2,6-Dichloro-phenylamino)-1H-benzimidazole-5-carboxylic acid (4-trifluoromethyl-pyridin-2-ylmethyl)-amide] — lower, 87%

Point of comparison: “2-(2-Chloro-6-fluorophenylamino-N-(4-isopropylcyclohexyl)-6-fluoro-1-methyl-1H-benzimidazole-5-carboxamide [Example 363]”, “% inhib.” value 100%. Against it:
- N-(4-Bromophenyl)-1-methyl-2-(2-(4-morpholino)phenylamino)-1H-benzimidazole-5-carboxamide [Example 555] — lower, 70%
